Laboratory results as given in patent US6329497A, “Sandramycin analogs” (The Scripps Research Institute, priority 1999, dated 2001).
“Also recorded” adds a separate entry of the source.

Legend:
5'-d(GCGCGC)2 = test: Sandramycin binding to deoxyoligonucleotides, fluorescence quenching, 5'-d(GCGCGC)2
Description: (§1) Apparent absolute DNA binding constants for 1-22 and related agents including luzopeptin A were obtained by measurement of the fluorescence quenching upon titration addition of calf thymus DNA or the deoxyoligonucleotides 5'-d(GCXXGC)2 where XX=AT, TA, GC, and CG. For each agent, the characteristic fluorescence excitation and emission spectra were recorded in 10 mM Tris-HCl, 75 mM NaCl (pH 7.4) buffer, FIG. 6. For the DNA binding assays which quantitate the fluorescence quenching, excitation outside the absorbance range of DNA was employed and the most intense fluorescence emission at a longer wavelength monitored. For assay of the DNA-induced fluorescence quenching of the agents, a 2 mL buffer solution of Tris-HCl (pH 7.4) and 75 mM NaCl was employed. For titration, small aliquots of DNA were added to solutions of the agents in Tris-HCl buffer (pH 7.4).
(§2) A pronounced downward curvature in an infinite lattice such as calf thymus DNA is recognized to arise in part from neighbor exclusion where the binding of an agent excludes the subsequent binding at nearby sites. […]
(§3) After 5 min of stirring, an initial fluorescence reading was taken with minimum exposure to the excitation beam. […] The results of the titration were analyzed by Scatchard analysis. […]

5'-d(GCTAGC)2 = test: Sandramycin binding to deoxyoligonucleotides, fluorescence quenching, 5'-d(GCTAGC)2
Description: as §1, §2, §3

5'-d(GCCGGC)2 = test: Sandramycin binding to deoxyoligonucleotides, fluorescence quenching, 5'-d(GCCGGC)2
Description: as §1, §2, §3

[1] = target: HIV-1 reverse transcriptase (Human immunodeficiency virus type 1 group M subtype B, UniProt P04585); test: Inhibition of HIV-1 reverse transcriptase; format: biochemical
Description: The assay was performed according to an available procedure (Goldman, M. E.; Salituro, G. S.; Bowen, J. A.; Williamson, J. M.; Zink, D. L.; Schleif, W. A.; Emini, E. A. Mol. Pharmacol. 1990, 38, 20) with slight modification. A 45 L solution of reaction buffer containing 55 mM Tris·HCl, pH 8.2, 80 mM potassium chloride, 12 mM MgCl2, 1 mM DTT, 50 M EGTA, 2.5 g/mL rA·dT, 0.5 Ci of [^3 H]TTP, 10 M TTP, 1 mg/mL BSA, and 0.01% Triton X-100 was added to a well in a filter cluster plate (Millipore MAHV N45). The reverse transcription reaction was initiated upon addition of the reverse transcriptase (1 unit; 1 unit=10 pmol of [^3 H]TMP incorporated/60 min at 37° C.). The plate was incubated at 37° C. for 90 min. The plate was then placed on ice and 200 µL of 13% trichloroacetic acid and 10 mM sodium pyrophosphate was added to each well. The plate was chilled for 2 h and the liquid vacuumed out through the filter using a Millipore manifold (Millipore MAVM 09601). The precipitate was washed with 1 M and 10 mM sodium pyrophosphate twice. The filter was punched out and placed in a scintillation vial. 4 mL of cocktail was added. Radioactivity was determined by liquid scintillation counting.
The effects of sandramycin and its analogs on HIV-1 reverse transcriptase were determined by incubating the agents and the rA·dT containing buffer at 25° C. for 30 min prior to addition of the reverse transcriptase. Reactions containing no agents were used as controls, and those lacking the transcriptase were used as blanks.

L1210 cell line = test: In vitro cytotoxic activity, L1210; format: cell-based
[2] = system: melanomas, carcinomas, and adenocarcinomas; test: In vitro cytotoxic activity of 4 against tumor cell lines; format: cell-based
HL-60 = test: In vitro cytotoxic activity, HL-60; format: cell-based
leukemia cell lines = conditions: typical
[3] = system: two single mutant and one double mutant of HIV-1 reverse transcriptase; conditions: cited from earlier work
calf thymus DNA = test: DNA binding constant determination for 23 (ethidium bromide displacement; sandramycin titration)
Description: Calf thymus DNA (1.0×10^-5 M in base-pair) was mixed with ethidium bromide (5.0×10^-6 M) resulting in a 2:1 ratio of base-pair:ethidium in a 10 mM Tris-HCl (pH 7.4), 75 mM NaCl buffer solution (2 mL). The fluorescence was calibrated at 24° C. to 100% F and 0% F with a DNA-ethidium buffer solution and ethidium buffer solution, respectively. The premixed DNA-ethidium solution was titrated with small aliquots of 23 (20 to 40 μL of 3 mM […] in DMSO) and incubated at 24° C. for 30 min prior to each fluorescence measurement. The fluorescence was measured with 545 nm excitation and 595 nm emission with a slit width of 10 nm. The absolute binding constant from three such titrations were determined at 50% ethidium bromide displacement as measured by a drop in fluorescence to 50%. The binding constant of ethidium bromide employed to calculate the absolute binding constant with a competitive or noncompetitive binding model^39 was 4.5×10^5 M^-1 and the results are summarized in Table 4.
A 2 mL of sample containing 400 μL of calf thymus DNA (320 μM in base-pair) with or without the presence of 40 μL of 23 (3.2×10^-3 M in DMSO) in 10 mM Tris-HCl (pH 7.4), 75 mM NaCl buffer solution was titrated with small aliquots of sandramycin (1 μL, 1.0×10^-3 M in DMSO). The quenching of fluorescence was measured 5 min after each addition of sandramycin with 360 nm excitation and 530 nm fluorescence.

five cell lines = test: In vitro cytotoxic activity of key substructure analogs, five cell lines; format: cell-based

Compound: CC(C)[C@H]1C(=O)OC[C@H](NC(=O)c2nc3ccccc3cc2O)C(=O)N2CCCC[C@@H]2C(=O)NCC(=O)N(C)CC(=O)N(C)[C@H](C(C)C)C(=O)OC[C@@H](NC(=O)c2nc3ccccc3cc2O)C(=O)N2CCCC[C@@H]2C(=O)NCC(=O)N(C)CC(=O)N1C [compound 1, Sandramycin]
- G° relative to 5'-d(GCATGC)2 (5'-d(GCGCGC)2): 0.3 kcal/mol
- G° relative to 5'-d(GCATGC)2 (5'-d(GCTAGC)2): 0.6 kcal/mol
- G° relative to 5'-d(GCATGC)2 (5'-d(GCCGGC)2): 0.6 kcal/mol
- HIV-1 reverse transcriptase inhibition, in words [1]: slightly more effective than luzopeptin A
- IC50 ([1]; range given for both agents): 130 to 190 nM

Compound: CC(C)[C@H]1C(=O)OC[C@@H](NC(=O)c2ccc3ccccc3n2)C(=O)N2CCCC[C@H]2C(=O)NCC(=O)N(C)CC(=O)N(C)[C@@H](C(C)C)C(=O)OC[C@@H](NC(=O)c2ccc3ccccc3n2)C(=O)N2CCCC[C@H]2C(=O)NCC(=O)N(C)CC(=O)N1C [compound 4, (N-(Quinol-inyl-2-carbonyl)-D-Ser-Pip-Gly-Sar-NMe-Val)2 (Serine Hydroxyl) Dilactone]
- cytotoxic potency, fold less potent than 1 (L1210 cell line): 10
- rank order of cytotoxic potency ([2]; carcinomas and adenocarcinomas): 4>luzopeptin A>sandramycin (1)
- rank order of cytotoxic potency ([2]; melanomas): 4=luzopeptin A>sandramycin (1)
- fold more potent than sandramycin (luzopeptin A or sandramycin) ([2]; melanomas, carcinomas, adenocarcinomas): 1-10,000
- cytotoxic potency, in words (HL-60): exceptionally potent; also recorded: unusually potent
- HIV-1 reverse transcriptase inhibition, in words [1]: Comparable but slightly less potent inhibition
- fold less potent than sandramycin [1]: 3
- fold less potent than sandramycin (luzopeptin A or sandramycin) (leukemia cell lines): 4-10

Compound: COc1ccc2nc(C(=O)N[C@@H]3COC(=O)[C@H](C(C)(C)O)N(C)C(=O)CN(C)C(=O)CNC(=O)[C@@H]4[C@@H](OC(=O)[C@@H]5C[C@H]5C)CC=NN4C(=O)[C@H](NC(=O)c4cnc5cc(OC)ccc5n4)COC(=O)[C@H](C(C)(C)O)N(C)C(=O)CN(C)C(=O)CNC(=O)[C@@H]4C(OC(=O)[C@@H]5C[C@H]5C)CC=NN4C3=O)cnc2c1 (some centres unmarked) [quinoxapeptin A]
- relative effectiveness against mutants versus HIV-1 reverse transcriptase [3]: 1-3

Compound: (N-BOC-D-Ser-Pip-Gly-Sar-NMe-Val)2 (Serine Hydroxyl) Dilactone [compound 23]
- G° of binding (calf thymus DNA): -6.0 kcal/mol
- cytotoxic activity, in words (five cell lines; both chromophores removed): inactive
- fold less potent than 1 (five cell lines; five cell lines): approx 10^5
